Series [1] has as its system Aβ40 and Aβ42. It counts as in vivo, APP/PS1 mice. As to conditions: cortex and hippocampus; AP5 40 mg/kg once daily 5 months. As to the method: (§1) APP/PS1 mice of ages 6 months were randomly divided into vehicle (APP/PS1, n = 10) and treatment groups (AP5, n = 10), which were intragastrically administered with AP5 (40 mg/kg) once daily for consecutive 5 months. AP5 was dissolved in distilled water containing 1% sodium carboxymethyl cellulose.
For detecting the pathological soluble or insoluble Aβ in mice, sequential extractions were performed as follows: the half of right hippocampus and cortex from three groups were homogenized in TBS solution containing 5 mM EDTA, phosphatase inhibitor (P1050, Beyotime, Shanghai, China), and protease inhibitor cocktail (P1010, Beyotime) followed by centrifugation at 25,000g at 4°C for 1 h. The supernatant was collected as a TBS fraction and the resulting pellet was solubilized in 70% formic acid (FA), sonicated until the lysis buffer was clear, followed by centrifugation at 25,000g at 4°C for 1 h. The supernatant was collected as the FA fraction and neutralized (1:20) in a neutralization buffer (1 M tris base, 0.5 M Na2HPO4, 0.05% NaN3). Human Aβ40 and Aβ42 were determined by ELISA kits (E-EL-H0452c and E-EL-H0453c, Elabscience, Wuhan, China) in accordance with the manufacturer’s instructions. In addition, the levels of IL-1β (88-7013-88, Invitrogen), IL-6 (EK206HS-96, Multi sciences, HangZhou, China), and TNF-α (88-7324-88, Invitrogen) in TBS fraction were also determined by ELISA.

Series [2] deals with CD11c within microglia. The series is described as follows: CD11c and Iba1 co-immunostaining (DAM marker). Format: in vivo. As to conditions: AP5-treated vs APP/PS1 mice. The method, then: as §1
The fixed hemibrains were paraffin-embedded and sectioned in the coronal plane. The slices were deparaffinized with xylene and rehydrated by a series of gradient alcohols. Antigen retrieval through microwave boiling was performed with 10 mM sodium citrate solution at pH 6.0. The slices were cooled down to room temperature and then rinsed in PBS solution. Then the slices were incubated in 10% goat serum blocking solution for 1 h followed by primary antibodies overnight at 4°C. The next day, the slides were labeled with biotinylated or fluorescent secondary antibodies. Slices were washed three times with PBS before being mounted. Images were captured using a SpinSR10 scanner (Olympus, Tokyo, Japan). […]
Cambridge, UK) or anti-GFAP (1:100, bs-0199R, Bioss) at4 °C. After being washed with PBS, slides were treated with a biotinylated secondary antibody for 30 min and with streptavidin-peroxidase complex for another 30 min at 37°C. Immunostaining was visualized with 3,3′-diaminobenzidine (DAB, ZL1-9018, Zhongshan Jinqiao, Beijing, China ).The images were acquired using a Nikon microscope (Nikon, […]

Consider `CCN(C)C(=O)Oc1cccc(/C=C2\Cc3cc(OC)c(OC)cc3C2=O)c1` [AP5, (E)-3-((5,6-dimethoxy-1-oxo-1,3-dihydro-2H-inden-2-ylidene)-methyl)phenylethyl(methyl)carbamate], for which, in series [1], the “Aβ40 and Aβ42 in TBS-fraction” value is listed as “no marked differences”; the “concentration of insoluble Aβ40 in FA-fractions” value is recorded as “markedly decreased”; the “concentration of insoluble Aβ42 in FA-fractions” value is recorded as “markedly decreased”. For the same compound, the “CD11c-positive area within the activated microglia” value in series [2] was “significantly elevated”.
